In patent US8624027B2, “Combination therapy for treating cancer and diagnostic assays for use therein” (AbbVie Inc., priority 2005, dated 2014):
Like-named read-outs stand apart in the source and are kept apart here.

What was measured:
[1] = Pharmacokinetic evaluation in rat; format: in vivo; details: male, Sprague-Dawley, plasma; for AUC(0-inf): single 5 mg/kg oral dose, Table 1, read-out: Pharmacokinetic area under the plasma concentration Curve (rat) AUC0-∞; for AUC / Cmax: 5 mg/kg, oral; for AUC: Table 3, read-out: Pharmacokinetic area under the plasma concentration Curve (rat) AUC; for Cmax: Table 3, read-out: Pharmacokinetic peak plasma concentration (rat) Cmax
Method: The pharmacokinetic behavior of compounds of this disclosure was determined following a single 2 mg/kg intravenous or 5 mg/kg oral dose in male Sprague-Dawley derived rats (n=3 per group). The compounds were prepared as 2 mg/mL solution in a 10% DMSO in PEG-400 formulation for both oral and intravenous administration. The 1 mL/kg intravenous dose was administered as a slow bolus (about 1-2 minutes) in the jugular vein of a rat under light ether anesthetic. The oral dose was administered by gavage. Serial blood samples were obtained from a tail vein of each rat prior 0.1 (IV only), 0.25, 0.5, 1, 1.5, 2, 3, 4, 6, 8 and 24 hours after dosing. The heparinized samples were thoroughly mixed and placed in an ice bath. Plasma was separated by centrifugation and stored frozen prior to analysis.
The compounds of interest were separated from the plasma using protein precipitation with acetonitrile. A plasma (100-200 μL, sample or spiked standard) aliquot was combined with 50 μL of internal standard (structurally related analog prepared in acetonitrile) and 1 ml acetonitrile in a 96-well polypropylene deep well plate. The plates were vortexed for 30 seconds followed by centrifugation (3500 rpm×15 minutes, 4° C.). In an automated manner, the supernatant was transferred to a clean 96-well plate. The samples were evaporated to near dryness on a Micro-Vap™ under a stream of dry nitrogen over low heat (˜37° C.). The samples were reconstituted vortexing with 0.2 mL 5% DMSO in acetonitrile. A 0.1-0.2 ml aliquot of acetonitrile: 0.1% trifluoroacetic acid (20:80, by volume) was added to each well, followed by an additional 30 second vortexing. The plates were centrifuged (3500 rpm×15 minutes, 4° C.) prior to HPLC-MS/MS analysis. Samples were analyzed simultaneously with spiked plasma standards. All samples from each study were analyzed as a single batch on the LC-MS/MS.
The compounds of interest and the internal standard were separated from each other and co-extracted contaminants on a 50×3 mm Keystone Betasil CN 5 μm column with an acetonitrile: 0.1% trifluoroacetic acid mobile phase (50:50, by volume) at a flow rate of 0.7 ml/min. Analysis was performed on a Sciex API 300™ Biomolecular Mass Analyzer using a heated nebulizer interface. Peak areas of the title compounds and internal standards were determined using the Sciex MacQuan™ software. Calibration curves were derived from peak area ratio (parent drug/internal standard) of the spiked rat plasma standards using least squares linear regression of the ratio versus the theoretical concentration. The methods were generally linear over the range of the standard curve (correlation coefficients >0.99) with an estimated quantitation limit of 0.01 μg/mL. The plasma concentration data for each animal were submitted to multi-exponential curve fitting using WinNonlin. The area under the plasma concentration-time curve from 0 to t hours (time of the last measurable plasma concentration) after dosing (AUC0-t) was calculated using the linear trapezoidal rule for the plasma concentration-time profiles. The residual area extrapolated to infinity, determined as the final measured plasma concentration (Ct) divided by the terminal elimination rate constant (β), was added to AUC0-t to produce the total area under the curve (AUC0-∞). Ki values shown in the tables below were determined using Wang's equation (Wang Z X., An Exact Mathematical Expression For Describing Competitive Binding Of Two Different Ligands To A Protein Molecule. FEBS Lett. 1995; 360:111-4)).

[2] = target: T1, Bcl-2 protein (Homo sapiens, UniProt P10415, DELINS35-91DVEENRTEAPEGTESE, form not given); test: Bcl-2 binding affinity, fluorescence polarization with fluorescein-labeled BAX peptide; details: Wang's equation, read-out: Target Binding Affinity Ki (Bcl-2)
T1 construct: fused on or other part: A short piece of the Bcl-xL (Q07817) loop replaces Bcl-2 loop residues 35-91; The C-terminal membrane anchor is absent

[3] = system: NCI-H146 human small cell lung carcinoma cells; test: Cellular efficacy in human tumor cell line (MTS viability assay); format: cell-based; details: NCI-H146, 10% human serum, 48 hours
Method: NCI-H146 (ATCC, Manassas, Va.) human small cell lung carcinoma cells were plated 50,000 cells per well in 96-well tissue culture plates in a total volume of 100 μL tissue culture medium supplemented with 10% human serum (Invitrogen, Carlsbad, Calif.) instead of fetal bovine serum and treated with a 2-fold serial dilution of the compounds of interest from 10 μM to 0.020 μM. Each concentration was tested in duplicate at least 3 separate times. The number of viable cells following 48 hours of compound treatment was determined using the CellTiter 96® AQueous non-radioactive cell proliferation MTS assay according to manufacturer's recommendations (Promega Corp., Madison, Wis.).

[4] = target: Bcl-XL protein (Homo sapiens, UniProt Q07817); test: Bcl-XL binding affinity, fluorescence polarization with fluorescein-labeled BAD peptide; details: Wang's equation, read-out: Target Binding Affinity Ki (Bcl-XL)
[5] = Table 1, read-out: NCI-H146 Cellular Efficacy EC50
[6] = Table 3, read-out: NCI-H146 Cellular Efficacy H146 EC50

T1 sequence (P10415 with tags, fused parts or gaps with the stated changes): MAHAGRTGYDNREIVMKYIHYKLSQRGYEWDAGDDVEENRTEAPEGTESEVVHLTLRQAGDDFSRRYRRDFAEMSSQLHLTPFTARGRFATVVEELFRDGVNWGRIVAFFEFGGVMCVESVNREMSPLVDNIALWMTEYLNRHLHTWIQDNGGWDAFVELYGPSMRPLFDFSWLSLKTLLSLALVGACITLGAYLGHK
Sequence of Bcl-XL protein (Q07817 with tags, fused parts or gaps DEL45-84): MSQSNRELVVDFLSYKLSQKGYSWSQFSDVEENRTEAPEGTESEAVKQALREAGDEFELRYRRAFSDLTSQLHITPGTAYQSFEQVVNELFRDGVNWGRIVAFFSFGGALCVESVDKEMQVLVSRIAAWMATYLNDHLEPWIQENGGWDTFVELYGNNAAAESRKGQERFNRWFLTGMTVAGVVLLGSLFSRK

CC1(C)CCC(CN2CCN(c3ccc(C(=O)NS(=O)(=O)c4ccc(N[C@H](CCN5CCCC5)CSc5ccccc5)c(S(=O)(=O)C(F)(F)Cl)c4)cc3)CC2)=C(c2ccc(Cl)cc2)C1 [Example 31, 3-((chloro(difluoro)methyl)sulfonyl)-N-(4-(4-((2-(4-chlorophenyl)-4,4-dimethylcyclohex-1-en-1-yl)methyl)piperazin-1-yl)benzoyl)-4-(((1R)-1-((phenylsulfanyl)methyl)-3-(pyrrolidin-1-yl)propyl)amino)benzenesulfonamide]
AUC(0-inf) [1]: 5.1 µM·h | Ki [2]: ≤ 1 nM | EC50 [3, 5]: 13 nM | Ki [4]: ≤ 1 nM

CN(C)CC[C@H](CSc1ccccc1)Nc1ccc(S(=O)(=O)NC(=O)c2ccc(N3CCN(CC4=C(c5ccc(Cl)cc5)CCC(C)(C)C4)CC3)cc2)cc1S(=O)(=O)C(F)(F)F [Example 20, N-(4-(4-((2-(4-chlorophenyl)-5,5-dimethyl-1-cyclohex-1-en-1-yl)methyl)piperazin-1-yl)benzoyl)-4-(((1R)-3-(dimethylamino)-1-((phenylsulfanyl)methyl)propyl)amino)-3-((trifluoromethyl)sulfonyl)benzenesulfonamide]
AUC(0-inf) [1]: 3.11 µM·h | Ki [2]: ≤ 1 nM | EC50 [3, 5]: 27.7 nM | Ki [4]: ≤ 1 nM

O=C(NS(=O)(=O)c1ccc(N[C@H](CCN2CCCC2)CSc2ccccc2)c(S(=O)(=O)C(F)(F)F)c1)c1ccc(N2CCN(CC3=C(c4ccc(Cl)cc4)CCCC3)CC2)cc1 [Example 27, N-(4-(4-((2-(4-chlorophenyl)cyclohex-1-en-1-yl)methyl)piperazin-1-yl)benzoyl)-4-(((1R)-1-((phenylsulfanyl)methyl)-3-(pyrrolidin-1-yl)propyl)amino)-3-((trifluoromethyl)sulfonyl)benzenesulfonamide]
AUC(0-inf) [1]: 2.08 µM·h | Ki [2]: ≤ 1 nM | EC50 [3, 5]: 18.5 nM | Ki [4]: ≤ 1 nM

CC(C)N(C)CC[C@H](CSc1ccccc1)Nc1ccc(S(=O)(=O)NC(=O)c2ccc(N3CCN(CC4=C(c5ccc(Cl)cc5)CCCCC4)CC3)cc2)cc1S(=O)(=O)C(F)(F)F [Example 5, N-(4-(4-((2-(4-chlorophenyl)-1-cyclohepten-1-yl)methyl)piperazin-1-yl)benzoyl)-4-(((1R)-3-(isopropyl(methyl)amino)-1-((phenylsulfanyl)methyl)propyl)amino)-3-((trifluoromethyl)sulfonyl)benzenesulfonamide]
AUC(0-inf) [1]: 2.22 µM·h | Ki [2]: ≤ 1 nM | EC50 [3, 5]: 38.8 nM | Ki [4]: ≤ 1 nM

O=C(NS(=O)(=O)c1ccc(N[C@H](CCN2C3CCC2CC3)CSc2ccccc2)c(S(=O)(=O)C(F)(F)F)c1)c1ccc(N2CCN(CC3=C(c4ccc(Cl)cc4)CCCC3)CC2)cc1 [Example 8, 4-(((1R)-3-(7-azabicyclo[2.2.1]hept-7-yl)-1-((phenylsulfanyl)methyl)propyl)amino)-N-(4-(4-((2-(4-chlorophenyl)cyclohex-1-en-1-yl)methyl)piperazin-1-yl)benzoyl)-3-((trifluoromethyl)sulfonyl)benzenesulfonamide]
AUC [1]: 1.1 µM·h | Cmax [1]: 71 nM | AUC(0-inf) [1]: 1.1 µM·h | Ki [2]: ≤ 1 nM | EC50 [3, 5]: 21.2 nM | EC50 [3, 6]: 21 nM | Ki [4]: ≤ 1 nM

CC1(C)CCC(CN2CCN(c3ccc(C(=O)NS(=O)(=O)c4ccc(N[C@H](CCN5CCCC5)CSc5ccccc5)c(S(=O)(=O)C(F)(F)F)c4)cc3)CC2)=C(c2ccc(Cl)cc2)C1 [Example 34, N-(4-(4-((2-(4-chlorophenyl)-4,4-dimethylcyclohex-1-en-1-yl)methyl)piperazin-1-yl)benzoyl)-4-(((1R)-1-((phenylsulfanyl)methyl)-3-(pyrrolidin-1-yl)propyl)amino)-3-((trifluoromethyl)sulfonyl)benzenesulfonamide]
AUC(0-inf) [1]: 11.1 µM·h | Ki [2]: ≤ 1 nM | EC50 [3, 5]: 20 nM | Ki [4]: ≤ 1 nM

O=C(NS(=O)(=O)c1ccc(N[C@H](CCN2CC3CC2CO3)CSc2ccccc2)c(S(=O)(=O)C(F)(F)F)c1)c1ccc(N2CCN(CC3=C(c4ccc(Cl)cc4)CCCCC3)CC2)cc1 (stereo partly drawn) [Example 12, N-(4-(4-((2-(4-chlorophenyl)cyclohept-1-en-1-yl)methyl)piperazin-1-yl)benzoyl)-4-(((1R)-3-(2-oxa-5-azabicyclo[2.2.1]hept-5-yl)-1-((phenylsulfanyl)methyl)propyl)amino)-3-((trifluoromethyl)sulfonyl)benzenesulfonamide]
AUC(0-inf) [1]: 2.07 µM·h | Ki [2]: ≤ 1 nM | EC50 [3, 5]: 27.1 nM | Ki [4]: ≤ 1 nM

CC1(C)CCC(CN2CCN(c3ccc(C(=O)NS(=O)(=O)c4ccc(N[C@H](CCN5CCOCC5)CSc5ccccc5)c(S(=O)(=O)C(F)(F)Cl)c4)cc3)CC2)=C(c2ccc(Cl)cc2)C1 [Example 2, 3-((chloro(difluoro)methyl)sulfonyl)-N-(4-(4-((2-(4-chlorophenyl)-4,4-dimethylcyclohex-1-en-1-yl)methyl)piperazin-1-yl)benzoyl)-4-(((1R)-3-(morpholin-4-yl)-1-((phenylsulfanyl)methyl)propyl)amino)benzenesulfonamide]
AUC(0-inf) [1]: 7.01 µM·h | Ki [2]: ≤ 1 nM | EC50 [3, 5]: 29.1 nM | Ki [4]: ≤ 1 nM

O=C(NS(=O)(=O)c1ccc(N[C@H](CCN2C[C@@H]3C[C@H]2CO3)CSc2ccccc2)c(S(=O)(=O)C(F)(F)Cl)c1)c1ccc(N2CCN(CC3=C(c4ccc(Cl)cc4)CCCC3)CC2)cc1 [Example 6, 3-((chloro(difluoro)methyl)sulfonyl)-N-(4-(4-((2-(4-chlorophenyl)cyclohex-1-en-1-yl)methyl)piperazin-1-yl)benzoyl)-4-(((1R)-3-((1S,4S)-2-oxa-5-azabicyclo[2.2.1]hept-5-yl)-1-((phenylsulfanyl)methyl)propyl)amino)benzenesulfonamide]
AUC [1]: 0.913 µM·h | Cmax [1]: 113 nM | AUC(0-inf) [1]: 0.91 µM·h | Ki [2]: ≤ 1 nM | EC50 [3, 5]: 1 nM | EC50 [3, 6]: 10 nM | Ki [4]: ≤ 1 nM

CC1(C)CCC(c2ccc(Cl)cc2)=C(CN2CCN(c3ccc(C(=O)NS(=O)(=O)c4ccc(N[C@H](CCN5CC6CC5CO6)CSc5ccccc5)c(S(=O)(=O)C(F)(F)Cl)c4)cc3)CC2)C1 (stereo partly drawn) [Example 11, 3-((chloro(difluoro)methyl)sulfonyl)-N-(4-(4-((2-(4-chlorophenyl)-5,5-dimethylcyclohex-1-en-1-yl)methyl)piperazin-1-yl)benzoyl)-4-(((1R)-3-(2-oxa-5-azabicyclo[2.2.1]hept-5-yl)-1-((phenylsulfanyl)methyl)propyl)amino)benzenesulfonamide]
AUC(0-inf) [1]: 2.4 µM·h | Ki [2]: ≤ 2 nM | EC50 [3, 5]: 20.6 nM | Ki [4]: ≤ 3 nM
